Experimental data from patent publication US6552073B1, “Compounds and methods of treating cell proliferative diseases” (Exonhit Therapeutics SA, priority 2002, dated 2003).
“Also recorded” adds a separate entry of the source.

What was measured:
[1] = test system: NIH3T3 cells transfected with RasV12; assay: Colony formation assay in the presence of constitutively activated Ras (RasV12); assay type: cell-based, mouse; design: key to Colony formation: −: no effect of the compound was observed; +: an effect of the compound was observed; settings: NIH3T3, neoR colonies
Experimental: c) Ras/Rac-dependant Signaling Pathway Analysis
The impact of the compounds on Ras and Rac signaling pathways was analysed with two reporter systems described by Imler (Nature 1988) and Lin (Science, 1995) respectively on one hand, and by a colony formation assay in the presence of constitutively activated Ras (RasV12) and Rac (RacV12) on the other hand. For this latter experiment, fifty percent confluent NIH3T3 cells in a 10 cm diameter petri dish were transfected with 0.5 μg pSV2-RasV12 or 0.5 μg pEXV RacV12 plasmids plus 100 ng of pSV2-neomycin plasmid using Lipofectamine-Plus reagent (Invitrogen) according to the manufacturer's instructions. Forty-eight hours later, cells were trypsinised, splitted to 1/3, and incubated in the presence of complete medium supplemented with 400 μg/ml geneticin (Invitrogen) and different doses of compound (1, 10, 17.5, 25 and 50 μM) until emerging resistant clones appear (2-3 weeks). The medium was renewed every 3 days. Colonies with a minimum of 50 cells were counted after staining with Fuschin 2%.

NIH3T3 = assay: Cytoskeleton analysis, actin staining; assay type: cell-based, mouse
Experimental: (§1) Since major rearrangements of cytoskeleton are observed in tumor cells and since the small GTPases are known to regulate these events, analysis of actin cytoskeleton was performed. Subconfluent cells seeded onto coverslips were treated with different concentration of compound (1, 10, 17.5, 25 and 50 μM) or vehicle for 24 h, before being fixed in 4% formaldehyde for 15 min., permeabilized in 0.2% Triton X100 for 5 minutes and incubated in PowerBlock (Biogenex) for 10 min. Actin filaments were stained with 0.5 μg/ml fluorescein isothiocyanate (FITC)-labelled phalloidin for 1 hour. Analysis was performed using an inverted fluorescent microscope.

MDA231 = assay: Cytoskeleton analysis, actin staining; assay type: cell-based, human
Experimental: as §1

MDA-MB-231 cells = assay: Matrigel invasion assay (Boyden chamber); assay type: cell-based, human; settings: MDA-MB-231, Boyden chamber, matrigel
Experimental: d) Migration and Matrigel Invasion Assay
Chemoinvasion assay was performed in Boyden chamber as described by Albini et al (Cancer Res, 1987) with some modifications. Polycarbonate membranes with 8μm pores were coated with matrigel (125 μg/cm^2) at room temperature for 48 h. Two hours before experiments, the matrix was […] with serum-free medium containing 0.1% BSA.
One day after seeding, 10^6 MDA-MB-231 cells were treated overnight with different concentrations of compounds (1, 10, 17.5, 25 and 50 μM). Cells were collected with Versene (Invitrogen), counted with trypan blue exclusion, rinsed twice in serum-free medium containing 0.1% BSA and resuspended in serum-free medium containing 0.1% BSA plus the appropriate concentration of compound. 10^5 treated cells were placed in the upper chamber. Medium containing 10% of FBS plus the appropriate concentration of compound was placed in the lower chamber as a chemoattractant. The Boyden chamber was incubated 6 hours at 37° C. before the cells were fixed and stained with Diff-Quick (Dade-Berhing). Cells on the upper part of the filters were removed using a cotton swab. Cells on the underside of the filters were visualised and counted under light microscope. The migration assay was performed the same way, using non-coated filters.

melting point [°C] | SMILES | other results
160 to 161 | O=C(O)c1cc(=O)c(OCCCCCOc2cccc(Cl)c2)co1 [EH15700, 5-[5-(3-Chlorophenyloxy)pentyloxy]-4-oxo-4H-pyran-2-carboxylic acid] | 
50 to 51 | C/C=C/c1oc(CO)cc(=O)c1OCCCCCOc1cccc(Cl)c1 [EH16201, (E)-3-[5-(3-Chlorophenyloxy)pentyloxy]-6-(hydroxymethyl)-2-(propen-1-yl)-4H-pyran-4-one] | 
84 to 85 | C/C=C/c1oc(CO)cc(=O)c1OCCCCCOc1ccc(Cl)cc1 [EH26101, (E)-3-[5-(4-Chlorophenyloxy)pentyloxy]-6-(hydroxymethyl)-2(propen-1-yl)-4H-pyran-4-one] | 
100 to 101 | C/C=C/c1oc(CO)cc(=O)c1OCCCCCOc1ccc(Cl)c(Cl)c1 [EH30101] | 
83 to 84 | CCCc1cc(Cl)c(Cl)cc1OCCCCCOc1coc(CO)cc1=O [EH30701, 5-[5-(4,5-Dichloro-2-propylphenyloxy)pentyloxy]-2-(hydroxymethyl)-4H-pyran-4-one] | Cell architecture modification, actin staining MDA231, general observation (MDA231): cell spreading
136 to 137 | C/C=C/c1oc(C(=O)O)cc(=O)c1OCCCCCOc1ccc(Cl)cc1 [EH17401, (E)-3-[-5-(4-Chlorophenyloxy)pentyloxy]-2-(propen-1-yl)-4-oxo-4H-pyran-6-carboxylic acid] | 
145 to 146 | C/C=C/c1oc(C(=O)O)cc(=O)c1OCCCCCOc1ccccc1CCC [EH15301, (E)-2-(Propen-1-yl)-3-[5-(2-propylphenyloxy)pentyloxy]-4-oxo-4H-pyran-6-carboxvlic acid] | 
154 to 156 | O=C(O)c1cc(=O)c(OCCCCCOc2ccc(Cl)cc2)co1 [EH17600, 5-[5-(4-Chlorophenyloxy)pentyloxy]-4-oxo-4H-pyran-2-carboxylic acid] | 
118 to 119 | C/C=C/c1oc(C(=O)O)cc(=O)c1OCCCCCOc1ccc(Cl)c(Cl)c1 [EH10501, (E)-3-[5-(3,4-Dichlorophenyloxy)pentyloxy]-2-(propen-1-yl)-4-oxo-4H-pyran-6-carboxylic acid] | 
82 to 83 | O=c1cc(COCc2ccccc2)occ1OCCCCCOc1ccc(Cl)c(Cl)c1 [EH7701, 2-(Benzyloxymethyl)-5-[5-(3,4-dichlorophenyloxy)pentyloxy]-4H-pyran-4-one] | Cell architecture modification, actin staining MDA231, general observation (MDA231): cell spreading; Invasion (MDA-MB-231 cells): No significant effect
155 to 156 | CCCc1c(OCCCCCOc2coc(C(=O)O)cc2=O)ccc(Cl)c1Cl [EH27900, 5-[5-(3,4-Dichloro-2-propylphenyloxy)pentyloxy]-4-oxo-4H-pyran-2-carboxylic acid] | 
75 to 76 | CCOc1ccccc1OCCCCCOc1coc(CO)cc1=O [EH18601, 5-[5-(2-Ethyloxyphenyloxy)pentyloxy]-2-(hydroxymethyl)-4H-pyran-4-one] | Invasion (MDA-MB-231 cells): No significant effect
116 to 117 | C/C=C/c1oc(C(=O)O)cc(=O)c1OCCCCCOc1cccc(Cl)c1 [EH18401, (E)-3-[5-(3-Chlorophenyloxy)pentyloxy]-2-(propen-1-yl)-4-oxo-4H-pyran-6-carboxylic acid] | 
182 to 183 | O=C(O)c1cc(=O)c(OCCCCOc2ccc(Cl)c(Cl)c2)co1 [EH20700, 5-[4-(3,4-Dichlorophenyloxy)butyloxy]-4-oxo-4H-pyran-2-carboxylic acid] | 
161 to 162 | C/C=C/c1oc(C(=O)O)cc(=O)c1OCCCCCOc1ccc(Cl)c(Cl)c1CCC [EH22501, (E)-3-[5-(3,4-Dichloro-2-propylphenyloxy)pentyloxy]-2-(propen-1-yl)-4-oxo-4H-pyran-6-carboxylic acid] | 
145 to 146 | CCCc1ccccc1OCCCCCOc1coc(C(=O)O)cc1=O [EH26900, 5-[5-(2-Propylphenyloxy)pentyloxy]-4-oxo-4H-pyran-2-carboxylic acid] | 
159 to 161 | O=C(O)c1cc(=O)c(OCCCCCOc2ccc(Cl)c(Cl)c2)co1 [EH6600, 5-[5-(3,4-Dichlorophenyloxy)pentyloxy]-4-oxo-4H-pyran-2-carboxylic acid] | 
141 to 142 | CCOc1ccccc1OCCCCCOc1coc(C(=O)O)cc1=O [EH4701, 5-[5-(2-Ethyloxyphenyloxy)pentyloxy]-4-oxo-4H-pyran-2-carboxylic acid] | 
62 to 64 | CCCc1c(OCCCCCCCOc2coc(CO)cc2=O)ccc(Cl)c1Cl [EH17701, 5-[7-(3,4-Dichloro-2-propylphenyloxy)heptyloxy]-2-(hydroxymethyl)-4H-pyran-4-one] | Cell architecture modification, actin staining MDA231, general observation (MDA231): cell spreading
125 to 126 | O=C(NCc1ccccc1)c1cc(=O)c(OCCCCCOc2ccc(Cl)cc2)co1 [EH28900, N-Benzyl-5-[5-(4-Chlorophenyloxy)pentyloxy]-4-oxo-4H-pyran-2-carboxamide] | 
86 to 87 | CCCc1c(OCCCCCCOc2coc(CO)cc2=O)ccc(Cl)c1Cl [EH16701, 5-[6-(3,4-Dichloro-2-propylphenyloxy)hexyloxy]-2-(hydroxymethyl)-4H-pyran-4-one] | Cell architecture modification, actin staining MDA231, general observation (MDA231): cell spreading; Invasion (MDA-MB-231 cells): No significant effect

SMILES | melting point [°C] | other results
O=c1cc(CO)occ1OCCCCOc1ccc(Cl)c(Cl)c1 [EH17700, 5-[4-(3,4-Dichlorophenyloxy)butyloxy]-2-(hydroxymethyl)-4H-pyran-4-one] | 107 to 108 | Colony formation [1]: −
O=c1cc(CO)occ1OCCCCCOc1cccc(Cl)c1 [EH10600, 5-[5-(3-Chlorophenyloxy)pentyloxy]-2-(hydroxymethyl)-4H-pyran-4-one] | 87 to 88 | Colony formation [1]: −; Cell architecture modification, actin staining NIH3T3, general observation (NIH3T3): affected the general morphology; also recorded: cell destructuration
C/C=C/c1oc(CO)cc(=O)c1OCCCCCOc1ccccc1CCC [EH9301, (E)-6-(Hydroxymethyl)-2-(propen-1-yl)-3-[5-(2-propylphenyloxy)pentyloxy]-4H-pyran-4-one] | 67 to 68 | Colony formation [1]: −; Invasion (MDA-MB-231 cells): No significant effect
O=c1cc(CO)occ1OCCCCCOc1ccc(Cl)c(Cl)c1 [EH5500, 5-[5-(3,4-Dichlorophenyloxy)pentyloxy]-2-(hydroxymethyl)-4H-pyran-4-one] | 97 to 99 | Colony formation [1]: −; Cell architecture modification, actin staining NIH3T3, general observation (NIH3T3): affected the general morphology; also recorded: cell destructuration
